Source: ChEMBL document CHEMBL1641565, “Discovery and optimisation of a selective non-steroidal glucocorticoid receptor antagonist” (Bioorg Med Chem Lett, 2011)
Converted amounts (≈) assume the structure as drawn.

Assays:
[1] = molecular target: T1, Glucocorticoid receptor (Homo sapiens, UniProt P04150); assay: Binding affinity to human recombinant GR by competition ligand binding fluorescence polarization assay
T1 sequence (P04150 whole entry): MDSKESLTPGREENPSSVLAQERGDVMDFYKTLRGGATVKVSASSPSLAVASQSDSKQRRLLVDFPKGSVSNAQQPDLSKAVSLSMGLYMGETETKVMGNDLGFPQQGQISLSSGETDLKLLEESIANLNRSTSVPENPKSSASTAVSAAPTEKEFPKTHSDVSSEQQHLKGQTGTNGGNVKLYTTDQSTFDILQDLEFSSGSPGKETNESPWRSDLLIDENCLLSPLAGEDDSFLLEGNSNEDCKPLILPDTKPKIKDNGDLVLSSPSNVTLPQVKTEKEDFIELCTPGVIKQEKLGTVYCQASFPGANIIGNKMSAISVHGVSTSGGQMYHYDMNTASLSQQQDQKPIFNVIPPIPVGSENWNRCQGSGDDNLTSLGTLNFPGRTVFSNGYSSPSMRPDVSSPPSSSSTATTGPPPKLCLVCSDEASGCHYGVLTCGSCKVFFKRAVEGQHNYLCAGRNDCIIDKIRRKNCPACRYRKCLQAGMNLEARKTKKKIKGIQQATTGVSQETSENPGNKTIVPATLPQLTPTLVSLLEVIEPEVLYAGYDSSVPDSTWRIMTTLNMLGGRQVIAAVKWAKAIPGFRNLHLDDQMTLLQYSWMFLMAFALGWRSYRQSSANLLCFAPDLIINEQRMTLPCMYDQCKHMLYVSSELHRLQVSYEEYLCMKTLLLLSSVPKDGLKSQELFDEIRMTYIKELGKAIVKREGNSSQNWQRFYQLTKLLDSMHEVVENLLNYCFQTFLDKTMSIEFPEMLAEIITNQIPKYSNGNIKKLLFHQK

[2] = molecular target: T2, Progesterone receptor (Homo sapiens, UniProt P06401); assay: Binding affinity to human recombinant PR by competition ligand binding fluorescence polarization assay
T2 sequence (P06401 whole entry): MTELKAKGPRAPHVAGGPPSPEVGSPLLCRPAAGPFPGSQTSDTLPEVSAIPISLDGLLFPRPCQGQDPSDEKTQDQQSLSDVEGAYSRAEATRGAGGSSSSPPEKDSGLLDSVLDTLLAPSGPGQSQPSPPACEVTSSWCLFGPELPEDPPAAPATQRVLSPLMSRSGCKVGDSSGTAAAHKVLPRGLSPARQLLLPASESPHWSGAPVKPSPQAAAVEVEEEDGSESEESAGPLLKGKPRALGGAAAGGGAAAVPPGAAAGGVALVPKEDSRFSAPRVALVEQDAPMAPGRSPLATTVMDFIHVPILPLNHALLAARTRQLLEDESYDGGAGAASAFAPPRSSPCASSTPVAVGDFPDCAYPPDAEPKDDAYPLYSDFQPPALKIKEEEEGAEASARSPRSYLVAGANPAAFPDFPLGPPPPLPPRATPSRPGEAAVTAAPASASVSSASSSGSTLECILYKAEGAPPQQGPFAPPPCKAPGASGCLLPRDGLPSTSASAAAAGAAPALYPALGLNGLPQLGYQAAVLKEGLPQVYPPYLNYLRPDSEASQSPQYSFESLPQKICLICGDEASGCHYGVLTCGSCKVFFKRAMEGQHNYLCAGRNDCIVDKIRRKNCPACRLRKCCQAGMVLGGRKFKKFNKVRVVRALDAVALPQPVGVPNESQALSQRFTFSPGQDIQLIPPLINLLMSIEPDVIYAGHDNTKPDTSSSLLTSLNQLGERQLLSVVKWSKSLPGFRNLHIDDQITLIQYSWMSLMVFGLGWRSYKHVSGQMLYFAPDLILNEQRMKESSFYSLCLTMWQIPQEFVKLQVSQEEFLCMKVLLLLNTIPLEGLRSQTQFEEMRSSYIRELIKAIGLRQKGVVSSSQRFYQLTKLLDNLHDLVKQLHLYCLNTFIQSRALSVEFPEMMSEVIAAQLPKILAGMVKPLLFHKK

[3] = Plasma clearance in Wistar rat at 2 mg/kg, iv; 10 mg/kg, po; format: ADME, organism-based
[4] = molecular target: T3, Mineralocorticoid receptor (Homo sapiens, UniProt P08235); assay: Antagonist activity at human MR ligand binding domain transfected in CHO cells co-transfected with MMTV-luciferase gene assessed as inhibition of cortisol-induced luciferase activity; format: cell-based
T3 sequence (P08235 whole entry): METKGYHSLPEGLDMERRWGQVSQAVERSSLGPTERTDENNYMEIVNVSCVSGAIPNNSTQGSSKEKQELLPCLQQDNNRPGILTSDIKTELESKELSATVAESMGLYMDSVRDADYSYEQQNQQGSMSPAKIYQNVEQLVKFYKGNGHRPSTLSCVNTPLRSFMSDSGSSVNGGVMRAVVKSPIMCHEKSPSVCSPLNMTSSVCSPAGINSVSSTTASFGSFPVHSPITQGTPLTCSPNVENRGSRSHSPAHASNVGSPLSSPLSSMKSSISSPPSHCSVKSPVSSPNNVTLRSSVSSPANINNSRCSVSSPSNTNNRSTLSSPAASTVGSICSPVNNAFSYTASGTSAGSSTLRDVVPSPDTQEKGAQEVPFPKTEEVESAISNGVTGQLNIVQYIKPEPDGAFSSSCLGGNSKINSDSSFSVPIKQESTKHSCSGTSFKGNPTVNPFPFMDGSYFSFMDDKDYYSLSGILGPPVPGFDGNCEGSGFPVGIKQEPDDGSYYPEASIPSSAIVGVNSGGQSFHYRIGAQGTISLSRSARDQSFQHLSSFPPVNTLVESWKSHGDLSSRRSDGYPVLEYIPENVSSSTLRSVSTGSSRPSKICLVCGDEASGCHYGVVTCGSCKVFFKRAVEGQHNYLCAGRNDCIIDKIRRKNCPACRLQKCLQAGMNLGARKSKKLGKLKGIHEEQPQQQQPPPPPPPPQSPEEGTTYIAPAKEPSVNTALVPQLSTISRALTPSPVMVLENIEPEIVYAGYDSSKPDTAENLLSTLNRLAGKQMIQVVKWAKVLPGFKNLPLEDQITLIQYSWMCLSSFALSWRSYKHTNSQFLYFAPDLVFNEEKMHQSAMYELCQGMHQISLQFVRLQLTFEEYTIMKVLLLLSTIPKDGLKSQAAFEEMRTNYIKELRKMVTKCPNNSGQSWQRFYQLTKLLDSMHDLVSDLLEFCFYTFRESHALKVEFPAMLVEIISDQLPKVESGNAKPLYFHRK

[5] = molecular target: T1, Glucocorticoid receptor; assay: Antagonist activity at human GR […] domain transfected in CHO cells co-transfected with MMTV-luciferase gene assessed as inhibition of cortisol-induced luciferase activity; format: cell-based
[6] = Volume of distribution at steady state in Wistar rat at 2 mg/kg, iv; 10 mg/kg, po; format: ADME, organism-based; settings: in vivo, read-out: Vdss
[7] = Oral bioavailability in Wistar rat at 10 mg/kg; format: ADME, organism-based; settings: in vivo
[8] = Intrinsic clearance in human liver microsomes measured per mg of protein; format: ADME, Microsome
[9] = Solubility of the compound in PBS at pH 7.4; format: physicochemical
[10] = Intrinsic clearance in rat liver microsomes measured per mg of protein; format: ADME, Microsome

| SMILES | EC50 [1] | EC50 [2] | also measured |
| --- | --- | --- | --- |
| COc1ncccc1-c1ccc([C@@H](C)NS(=O)(=O)c2cn(C)nc2C(F)(F)F)cc1 | 12.6 nM | > 10000 nM |  |
| COc1ccc(F)cc1-c1ccc(CNS(=O)(=O)c2c(C)noc2C)cc1 | 12.6 nM | 126 nM |  |
| COc1ncccc1-c1ccc([C@@H](C)NS(=O)(=O)c2c(C)noc2C)cc1 | 25.1 nM | 794 nM |  |
| Cc1noc(C)c1S(=O)(=O)NCc1ccc(-c2ccccc2)cc1 | 1000 nM | > 10000 nM |  |
| COc1ccc(F)cc1-c1ccc([C@@H](C)NS(=O)(=O)c2cn(C)nc2C(F)(F)F)cc1 | 3.98 nM | 794 nM |  |
| Cc1noc(C)c1-c1ccc(CNS(=O)(=O)c2c(C)noc2C)cc1 | 3.98 nM | 7.94 nM |  |

More lines, in order of falling EC50 [1], values ahead:

| EC50 [1] | EC50 [2] | SMILES | also measured |
| --- | --- | --- | --- |
| 31.6 nM | 200 nM | COc1ccccc1-c1ccc(CNS(=O)(=O)c2c(C)noc2C)cc1 |  |
| 25.1 nM | 251 nM | COc1ccc(F)cc1-c1ccc([C@H](C)NS(=O)(=O)c2c(C)noc2C)cc1 |  |
| 12.6 nM | > 10000 nM | COc1ncc(C#N)cc1-c1ccc([C@@H](C)NS(=O)(=O)c2cn(C)nc2C(F)(F)F)cc1 | clearance [3]: 9.8 mL/min/kg; EC50 [4]: > 10000 nM; EC50 [5]: 100 nM; Vd [6]: 0.7 L/kg; bioavailability [7]: 42%; microsomal CLint [8]: < 12 µL/min/mg; solubility [9]: 28.9 µg/mL (≈ 62.1 µM); microsomal CLint [10]: < 12 µL/min/mg |
| 10 nM | 631 nM | Cc1noc(C)c1S(=O)(=O)N[C@H](C)c1ccc(-c2cccnc2OC(F)F)cc1 | microsomal CLint [8]: > 270 µL/min/mg |
| 6.31 nM | 79.4 nM | COc1ncc(C#N)cc1-c1ccc([C@@H](C)NS(=O)(=O)c2c(C)noc2C)cc1 |  |
| 5.01 nM | 200 nM | COc1ccc(F)cc1-c1ccc([C@@H](C)NS(=O)(=O)c2c(C)noc2C)cc1 |  |
| 2 nM | 50.1 nM | COc1ccc(F)cc1-c1ccc(CNS(=O)(=O)c2cc(Cl)ccc2Cl)cc1 |  |
